# Data: ChEMBL document CHEMBL1914284, “Pyrazinamide, but not pyrazinoic acid, is a competitive inhibitor of NADPH binding to Mycobacterium tuberculosis fatty acid synthase I” (Bioorg Med Chem Lett, 2011)
# Activity calls are given as the source filed them. The calls are words filed in the database; no cut-off is given here.
# What was measured:
# [1] = system: Mycobacterium tuberculosis; experiment: Binding affinity to Mycobacterium tuberculosis fatty acid synthase 1 at 350 uM by STD NMR spectrophotometric assay
# [2] = system: Mycobacterium tuberculosis; experiment: Binding affinity to Mycobacterium tuberculosis fatty acid synthase 1 at 500 uM by STD NMR spectrophotometric assay
# [3] = system: Mycobacterium tuberculosis; experiment: Binding affinity to Mycobacterium tuberculosis fatty acid synthase 1 at 8 mM by STD NMR spectrophotometric assay
# [4] = Binding affinity to Mycobacterium tuberculosis fatty acid synthase 1 by STD NMR spectrophotometric analysis in presence of increasing concentration of NADPH
# [5] = Competitive inhibition of Mycobacterium tuberculosis fatty acid synthase 1 assessed as inhibition of NADPH oxidation by STD NMR spectrophotometric analysis
compound,measurement,setting,value
C/C=C/C/C=C/CCC(=O)[C@H]1O[C@H]1C(N)=O,Activity,[1],Active
CC[C@@H](CO)NCCN[C@@H](CC)CO,Activity,[2],inactive
O=C(O)c1cnccn1,Activity,[3],Active
NC(=O)c1cnccn1 [PYRAZINAMIDE],Kd,[4],70 µM
same,Ki,[5],41 µM
same,Activity,[3],Active
